# Results published in patent US6699887B2, “Anti-HIV pyrazole derivatives” (Hoffmann-La Roche Inc., priority 2000, dated 2004).
# Assays:
# HXB2-strain of HIV = test: Antiviral assay: protection of HIV-infected MT4 cells from cell death (MTT); type: cell-based; conditions: Human immunodeficiency virus 1, 120 h; MT4 cells infected with HXB2-strain of HIV, 5 days, MTT viability
# Method: Anti-HIV antiviral activity was assessed using an adaptation of the method of Pauwels et al. {Pauwels et al., 1988, J Virol Methods 20:309-321}. The method is based on the ability of compounds to protect HIV-infected T lymphoblastoid cells (MT4 cells) from cell-death mediated by the infection. The endpoint of the assay was calculated as the concentration of compound at which the cell viability of the culture was preserved by 50% (‘50% inhibitory concentration’, IC50). The cell viability of a culture was determined by the uptake of soluble, yellow 3-[4,5-dimethylthiazol-2-yl]-2,5-diphenyltetrazolium bromide (MTT) and its reduction to a purple insoluble formazan salt. After solubilization, spectrophotometric methods were employed to measure the amount of formazan product.
# MT4 cells were prepared to be in logarithmic-phase growth and a total of 2×10^6 cells infected with the HXB2-strain of HIV at a multiplicity of 0.0001 infectious units of virus per cell in a total volume of between 200-500 microliters. The cells were incubated with virus for one hour at 37° C. before removal of virus. The cells are then washed in 0.01 M phosphate buffered saline, pH 7.2 before being resuspensed in culture medium for incubation in culture with serial dilutions of test compound. The culture medium used was RPMI 1640 without phenol red, supplemented with penicillin, streptomycin, L-glutamine and 10% fetal calf serum (GM10).
# Test compounds were prepared as 2 mM solutions in dimethyl sulphoxide (DMSO). Four replicate, serial 2-fold dilutions in GM10 were then prepared and 50 microliters amounts placed in 96-well plates over a final nanomolar concentration range of 625-1.22. Fifty microliters GM10 and 3.5×10^4 infected cells were then added to each well. Control cultures containing no cells (blank), uninfected cells (100% viability; 4 replicates) and infected cells without compound (total virus-mediated cell death; 4 replicates) were also prepared. The cultures were then incubated at 37° C. in a humidified atmosphere of 5% CO2 in air for 5 days.
# A fresh solution of 5 mg/mL MTT was prepared in 0.01 M phosphate buffered saline, pH 7.2 and 20 microliters added to each culture. The cultures were further incubated as before for 2 hours. They were then mixed by pipetting up and down and 170 microliters of Triton X-100 in acidified isopropanol (10% v/v Triton X-100 in 1:250 mixture of concentrated HCl in isopropanol). When the formazan deposit was fully solubilized by further mixing, the absorbance (OD) of the cultures was measured at 540 nm and 690 nm wavelength (690 nm readings were used as blanks for artefacts between wells). The percent protection for each treated culture was then calculated from the equation: [formula]
# The IC50 can be obtained from graph plots of percent protection versus log10 drug concentration.
# HIV-1 RT = HIV-1 RT (Human immunodeficiency virus type 1 group M subtype B, UniProt P04585); test: HIV-1 Reverse Transcriptase Assay: Inhibitor IC50 Determination; type: biochemical; conditions: purified recombinant enzyme, poly(rA)/oligo(dT)16 template-primer, 37° C. 30 min
# Method: Assay Method: HIV-1 Reverse Transcriptase Assay: Inhibitor IC50 Determination:
# HIV-1 RT assay was carried out in 96-well Millipore filtermat NOB50 plates using purified recombinant enzyme and a poly(rA)/oligo(dT)16 template-primer in a total volume of 50 μL. The assay constituents were 50 mM Tris/HCl, 50 mM NaCl, 1 mM EDTA, 6 mM MgCl2, 5 μM dTTP, 0.1 μCi [^3H] dTTP, 5 μg/ml poly (rA) pre annealed to 2.5 μg/ml oligo (dT)16 and a range of inhibitor concentrations in a final concentration of 10% DMSO. Reactions were initiated by adding 5 nM HIV-1 RT and after incubation at 37° C. for 30 min, they were stopped by the addition of 50 μl ice cold 20%TCA and allowed to precipitate at 4° C. for 30 min. The precipitates were collected by applying vacuum to the plate and sequentially washing with 2×200 μl of 10% TCA and 2×200 μl 70% ethanol. Finally the plates were dried and radioactivity counted in a Wallac Microbeta 1450 after the addition of 15 μl scintillation fluid per well. IC50's were calculated by plotting % inhibition versus log10 inhibitor concentrations.
smiles,measurement,setting,value
Cc1nn(-c2ccccc2)c(Sc2cc(Cl)cc(Cl)c2)c1Cc1ccccc1,IC50,HXB2-strain of HIV,403 nM
same,IC50,HIV-1 RT,2060 nM
Cc1nn(-c2ccccc2)c(Sc2cc(Cl)cc(Cl)c2)c1CCc1ccccc1,IC50,HXB2-strain of HIV,592 nM
same,IC50,HIV-1 RT,3420 nM
CCn1nc(COC)c(Cc2ccccc2)c1Sc1cc(Cl)cc(Cl)c1,IC50,HXB2-strain of HIV,453 nM
same,IC50,HIV-1 RT,8040 nM
Cc1nn(C(C)C)c(Sc2cc(Cl)cc(Cl)c2)c1Cc1ccccc1,IC50,HXB2-strain of HIV,24 nM
same,IC50,HIV-1 RT,270 nM
Cc1nn(-c2ccccc2)c(Sc2cc(Cl)cc(Cl)c2)c1Cc1ccncc1,IC50,HXB2-strain of HIV,36 nM
same,IC50,HIV-1 RT,105 nM
CCn1nc(C)c(Cc2ccncc2)c1Sc1cc(Cl)cc(Cl)c1,IC50,HXB2-strain of HIV,9 nM
same,IC50,HIV-1 RT,84 nM
Cc1nn(C(C)C)c(Sc2cc(Cl)cc(Cl)c2)c1Cc1ccccn1,IC50,HXB2-strain of HIV,75 nM
same,IC50,HIV-1 RT,1070 nM
Cc1nn(C(C)C)c(Sc2cc(Cl)cc(Cl)c2)c1COCc1ccccc1,IC50,HXB2-strain of HIV,100 nM
same,IC50,HIV-1 RT,349 nM
Cc1cc(C)cc(Sc2c(Cc3ccccn3)c(C)nn2C(C)C)c1,IC50,HXB2-strain of HIV,64 nM
same,IC50,HIV-1 RT,950 nM
Cc1nn(C(C)C)c(Sc2cc(Cl)cc(Cl)c2)c1COc1cccnc1,IC50,HXB2-strain of HIV,110 nM
same,IC50,HIV-1 RT,313 nM
Cc1nn(C(C)C)c(Sc2cc(Cl)cc(Cl)c2)c1COc1cncc(Cl)c1,IC50,HXB2-strain of HIV,203 nM
same,IC50,HIV-1 RT,650 nM
Cc1nn(C(C)C)c(Sc2cc(Cl)cc(Cl)c2)c1COCc1ccncc1,IC50,HXB2-strain of HIV,3.6 nM
same,IC50,HIV-1 RT,112 nM
Cc1nn(C(C)C)c(Sc2cc(Cl)cc(Cl)c2)c1Cc1cccnc1,IC50,HXB2-strain of HIV,14.6 nM
same,IC50,HIV-1 RT,572 nM
Cc1nn(C(C)C)c(Sc2cc(Cl)cc(Cl)c2)c1Cc1ccncc1,IC50,HXB2-strain of HIV,2.7 nM
same,IC50,HIV-1 RT,76 nM
Cc1nn(C(C)C)c(Sc2cc(Cl)cc(Cl)c2)c1CSc1ccncc1,IC50,HXB2-strain of HIV,34.1 nM
same,IC50,HIV-1 RT,292 nM
Cc1nn(C(C)C)c(Sc2cc(Cl)cc(Cl)c2)c1Cc1ccncn1,IC50,HXB2-strain of HIV,13.5 nM
same,IC50,HIV-1 RT,456 nM
Cc1nn(C(C)C)c(Sc2cc(Cl)cc(Cl)c2)c1COc1ccncc1,IC50,HXB2-strain of HIV,20 nM
same,IC50,HIV-1 RT,252 nM
Cc1nn(C(C)C)c(Sc2cc(Cl)cc(Cl)c2)c1Cc1ccncc1F,IC50,HXB2-strain of HIV,11.1 nM
same,IC50,HIV-1 RT,373 nM
Cc1nn(C(C)C)c(Sc2cc(Cl)cc(Cl)c2)c1Cc1ccncc1Cl,IC50,HXB2-strain of HIV,51.7 nM
same,IC50,HIV-1 RT,177 nM
CCn1nc(C)c(Cc2cncc(Br)c2)c1Sc1cc(Cl)cc(Cl)c1,IC50,HXB2-strain of HIV,124 nM
same,IC50,HIV-1 RT,398 nM
Cc1nn(C(C)C)c(Sc2cc(Cl)cc(Cl)c2)c1Cc1ccc(C#N)cc1,IC50,HXB2-strain of HIV,11.9 nM
same,IC50,HIV-1 RT,176 nM
Cc1nn(C(C)C)c(Sc2cc(Cl)cc(Cl)c2)c1Cc1ccnc(Cl)c1,IC50,HXB2-strain of HIV,15 nM
same,IC50,HIV-1 RT,109 nM
Cc1cc(Cc2c(C)nn(C(C)C)c2Sc2cc(Cl)cc(Cl)c2)cc(Cl)n1,IC50,HXB2-strain of HIV,28 nM
same,IC50,HIV-1 RT,880 nM
Cc1nn(C(C)C)c(Sc2cc(Cl)cc(Cl)c2)c1Cc1cnccn1,IC50,HXB2-strain of HIV,13.9 nM
same,IC50,HIV-1 RT,270 nM
COc1cc(Cl)cc(Sc2c(Cc3ccnc(OC)c3)c(C)nn2C(C)C)c1,IC50,HXB2-strain of HIV,31.5 nM
same,IC50,HIV-1 RT,298 nM
Cc1nn(C(C)C)c(Sc2cccc(Br)c2)c1Cc1ccncc1Cl,IC50,HIV-1 RT,5200 nM
Cc1cccc(Sc2c(Cc3ccncc3Cl)c(C)nn2C(C)C)c1,IC50,HIV-1 RT,1080 nM
Cc1cc(C)cc(Sc2c(Cc3ccncc3Cl)c(C)nn2C(C)C)c1,IC50,HIV-1 RT,607 nM
Cc1nn(C(C)C)c(Sc2cccc(Br)c2)c1Cc1ccncc1F,IC50,HXB2-strain of HIV,19 nM
same,IC50,HIV-1 RT,463 nM
Cc1cccc(Sc2c(Cc3ccncc3F)c(C)nn2C(C)C)c1,IC50,HXB2-strain of HIV,19 nM
same,IC50,HIV-1 RT,480 nM
Cc1cc(C)cc(Sc2c(Cc3ccncc3F)c(C)nn2C(C)C)c1,IC50,HXB2-strain of HIV,8.1 nM
same,IC50,HIV-1 RT,90 nM
